{"source": "patent US20070104649A1", "about": "“Optically fluorescent nanoparticles” (priority 2005, published 2007)", "assay": "UV-Vis absorption spectra of co-aggregate (J-aggregate) formation", "type": "physicochemical", "conditions": "non-aggregated dye", "protocol": "An aqueous solution of 0.1% (w/v) PEI (1.8, 10, 70, or 750 kDa) is gently stirred, and an aqueous solution of 0.02% (w/v) TITCC is instantly added. This composition is further agitated at about 4° C. for about 30-45 minutes under UV protection. The aggregation progress is monitored by UV-Vis spectra starting from 900 nm down to 600 nm.\nThis is confirmed by the absence of the starting wavelength of 756 nm of the pure dye, and by the new wavelength maximum at approximately 800 nm from the J-aggregates. In case of 100 and 125% surplus of PEI, the two wavelength maxima indicate that the dye is only partially bound as J-aggregate. Therefore, the wavelength of the pure dye and the wavelength maximum of the J-aggregates can be detected side by side. All measured samples contained the same concentration of dye. The absorption is reduced due to the quenching effects in the J-aggregates. UV-Vis spectra were recorded by UV-2401-PC spectrophotometer (Shimadzu Corp.).\nThis may be due to a more compact dye-polymer-complex if fewer cationic charges for stabilisation are available. Vice versa, the complexes are less compact having a greater amount of polymer which results in a smaller shift to approximately 795 nm."}
{"smiles": "CC(C=CC=C1N(CCS(=O)(=O)[O-])c2ccc(S(=O)(=O)[O-])cc2C1(C)C)=CC=CC1=[N+](CCS(=O)(=O)[O-])c2ccc(S(=O)(=O)[O-])cc2C1(C)C.[Na+].[Na+].[Na+]", "note": "[TITCC, trisodium-3,3-dimethyl-2-{4-methyl-7-[3,3-dimethyl-5-sulfonato-1-(2-sulfonatoethyl)-3H-indolium-2-yl]hepta-2,4,6-trien-1-ylidene}-1-(2-sulfonatoethyl)-2,3-dihydro-1H-indole-5-sulfonate, inner salt]", "values": [{"measurement": "absorption wavelength maximum of the pure dye", "result": 756, "unit": "nm"}]}
